The numbers were not newly measured in patent US11773078B2, “Furin inhibitors” (Glaxosmithkline Intellectual Property Development Limited, priority 2018, dated 2023), which cites them from elsewhere.

The target in this data set is furin and PCSK 5/6. Conditions: serpin protease inhibitor; specificity for furin and PCSK 5/6; from Couture et al. 2015; cited from earlier work.

For orientation: Ki means a measure of affinity in units of concentration, obtained from inhibition or displacement. For the substance “α1-PDX: "an engineered variant of naturally occurring α-1-antitrypsin serum protease inhibitor"; "a serpin superfamily wide protease inhibitor with high specificity for furin and PCSK 5/6"”, the Ki was not below 0.6 nM.
